# Experiments:
# SK-MEL-2 = assay: NCI 60 cell line panel screen (SRB); type: cell-based, human; settings: for Log10GI50: Melanoma, SK-MEL-2; for Log10LC50: SK-MEL2 (Melanoma), LC50: PG=−50; for Log10TGI50: SK-MEL-2 (Melanoma), TGI: PG=0
# SK-MEL-28 = assay: NCI 60 cell line panel screen (SRB); type: cell-based, human; settings: for Log10GI50: Melanoma, SK-MEL-28; for Log10LC50 / Log10TGI50: SK-MEL-28 (Melanoma); for Log10LC50: LC50: PG=−50; for Log10TGI50: TGI: PG=0
# HS 578T = assay: NCI 60 cell line panel screen (SRB); type: cell-based, human; settings: for Log10GI50: Breast Cancer, HS 578T; for Log10LC50 / Log10TGI50: HS 578T (Breast Cancer); for Log10LC50: LC50: PG=−50; for Log10TGI50: TGI: PG=0
# OVCAR-5 = assay: NCI 60 cell line panel screen (SRB); type: cell-based, human; settings: for Log10LC50 / Log10TGI50: OVCAR-5 (Ovarian Cancer); for Log10LC50: LC50: PG=−50; for Log10TGI50: TGI: PG=0; for Log10GI50: Ovarian Cancer, OVCAR-5
# NCI-H460 = assay: NCI 60 cell line panel screen (SRB); type: cell-based, human; settings: for Log10LC50 / Log10TGI50: NCI-H460 (Non-Small Cell Lung Cancer); for Log10LC50: LC50: PG=−50; for Log10TGI50: TGI: PG=0; for Log10GI50: Non-Small Cell Lung Cancer, NCI-H460
# SNB-19 = assay: NCI 60 cell line panel screen (SRB); type: cell-based, human; settings: for Log10GI50: CNS Cancer, SNB-19; for Log10LC50 / Log10TGI50: SNB-19 (CNS Cancer); for Log10LC50: LC50: PG=−50; for Log10TGI50: TGI: PG=0
# NCI-H23 = assay: NCI 60 cell line panel screen (SRB); type: cell-based, human; settings: for Log10LC50: LC50: PG=−50; for Log10GI50: Non-Small Cell Lung Cancer, NCI-H23
# MOLT-4 = settings: for Log10GI50: Leukemia, MOLT-4; for Log10LC50 / Log10TGI50: MOLT-4 (Leukemia); for Log10LC50: LC50: PG=−50; for Log10TGI50: TGI: PG=0
# Outline: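 Sulforhodamine B staining of TCA-fixed cellular protein was the read-out, following 48 h compound exposure at 37 °C. Plates were pre-incubated 24 h before dosing, and five concentrations (routinely 10^−4 to 10^−8 molar) were tested in duplicate with time-zero and untreated controls. Values derive from test/control percentage growth relative to time-zero mass.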
# OVCAR-8 = assay: NCI 60 cell line panel screen (SRB); type: cell-based, human; settings: for Log10LC50 / Log10TGI50: OVCAR-8 (Ovarian Cancer); for Log10LC50: LC50: PG=−50; for Log10TGI50: TGI: PG=0; for Log10GI50: Ovarian Cancer, OVCAR-8
# UACC-257 = assay: NCI 60 cell line panel screen (SRB); type: cell-based, human; settings: for Log10GI50: Melanoma, UACC-257; for Log10LC50 / Log10TGI50: UACC-257 (Melanoma); for Log10LC50: LC50: PG=−50; for Log10TGI50: TGI: PG=0
# RPMI-8226 = assay: NCI 60 cell line panel screen (SRB); type: cell-based, human; settings: for Log10LC50 / Log10TGI50: RPMI-8226 (Leukemia); for Log10LC50: LC50: PG=−50; for Log10TGI50: TGI: PG=0
# SNB-75 = assay: NCI 60 cell line panel screen (SRB); type: cell-based, human; settings: for Log10GI50: CNS Cancer, SNB-75; for Log10LC50 / Log10TGI50: SNB-75 (CNS Cancer); for Log10LC50: LC50: PG=−50; for Log10TGI50: TGI: PG=0
# SF-539 = assay: NCI 60 cell line panel screen (SRB); type: cell-based, human; settings: for Log10GI50: CNS Cancer, SF-539; for Log10LC50 / Log10TGI50: SF-539 (CNS Cancer); for Log10LC50: LC50: PG=−50; for Log10TGI50: TGI: PG=0
# K-562 = assay: NCI 60 cell line panel screen (SRB); type: cell-based, human; settings: for Log10LC50 / Log10TGI50: K-562 (Leukemia); for Log10LC50: LC50: PG=−50; for Log10TGI50: TGI: PG=0; for Log10GI50: Leukemia, K-562
# SK-OV-3 = assay: NCI 60 cell line panel screen (SRB); type: cell-based, human; settings: for Log10GI50: Ovarian Cancer, SK-OV-3; for Log10LC50 / Log10TGI50: SK-OV-3 (Ovarian Cancer); for Log10LC50: LC50: PG=−50; for Log10TGI50: TGI: PG=0
# CCRF-CEM = assay: NCI 60 cell line panel screen (SRB); type: cell-based, human; settings: for Log10LC50 / Log10TGI50: CCRF-CEM (Leukemia); for Log10LC50: LC50: PG=−50; for Log10TGI50: TGI: PG=0
# HOP-92 = assay: NCI 60 cell line panel screen (SRB); type: cell-based, human; settings: for Log10LC50 / Log10TGI50: HOP-92 (Non-Small Cell Lung Cancer); for Log10LC50: LC50: PG=−50; for Log10TGI50: TGI: PG=0; for Log10GI50: Non-Small Cell Lung Cancer, HOP-92
# TK-10 = assay: NCI 60 cell line panel screen (SRB); type: cell-based, human; settings: for Log10GI50: Renal Cancer, TK-10; for Log10LC50 / Log10TGI50: TK-10 (Renal Cancer); for Log10LC50: LC50: PG=−50; for Log10TGI50: TGI: PG=0
# [1] = NCI-H23 (Non-Small Cell Lung Cancer)
structure (smiles),measurement,setting,value
"CC1CCC2C(C)C(CC(CO)CC3OC4OC5(C)CCC6C(C)CCC(C3C)C46OO5)OC3OC4(C)CCC1C32OO4 (centres unmarked) [Compound 4, bis-trioxane primary alcohol]",Log10GI50,SK-MEL-2,−7.33
same,Log10LC50,SK-MEL-2,−4.46 log10M
same,Log10TGI50,SK-MEL-2,−4.92 log10M
same,Log10GI50,SK-MEL-28,−4.95
same,Log10LC50,SK-MEL-28,−4.12 log10M
same,Log10TGI50,SK-MEL-28,−4.54 log10M
same,Log10GI50,HS 578T,−4.82
same,Log10LC50,HS 578T,>−4.00 log10M
same,Log10TGI50,HS 578T,>−4.00 log10M
same,Log10LC50,OVCAR-5,−4.54 log10M
same,Log10TGI50,OVCAR-5,−6.42 log10M
same,Log10GI50,OVCAR-5,−7.79
same,Log10LC50,NCI-H460,−4.19 log10M
same,Log10TGI50,NCI-H460,−4.71 log10M
same,Log10GI50,NCI-H460,−7.35
same,Log10GI50,SNB-19,−4.88
same,Log10LC50,SNB-19,−4.13 log10M
same,Log10TGI50,SNB-19,−4.50 log10M
same,Log10LC50,NCI-H23; [1],−4.49 log10M
same,Log10GI50,NCI-H23,−7.84
same,concentration for cytotoxicity (percentage growth −50),MOLT-4,greater than 10^−4 M
same,Log10GI50,MOLT-4,−7.92
same,Log10LC50,MOLT-4,>−4.00 log10M
same,Log10TGI50,MOLT-4,>−4.00 log10M
same,Log10LC50,OVCAR-8,−4.03 log10M
same,Log10TGI50,OVCAR-8,−4.69 log10M
same,Log10GI50,OVCAR-8,−7.33
same,Log10GI50,UACC-257,−7.31
same,Log10LC50,UACC-257,−4.30 log10M
same,Log10TGI50,UACC-257,−4.71 log10M
same,Log10GI50,"RPMI-8226; Leukemia, RPMI-8226",<−8.00
same,Log10LC50,RPMI-8226,>−4.00 log10M
same,Log10TGI50,RPMI-8226,−6.91 log10M
same,Log10GI50,SNB-75,−4.99
same,Log10LC50,SNB-75,−4.12 log10M
same,Log10TGI50,SNB-75,−4.55 log10M
same,Log10GI50,SF-539,−7.05
same,Log10LC50,SF-539,−4.34 log10M
same,Log10TGI50,SF-539,−4.72 log10M
same,Log10LC50,K-562,>−4.00 log10M
same,Log10TGI50,K-562,>−4.00 log10M
same,Log10GI50,K-562,−7.91
same,Log10GI50,SK-OV-3,−4.85
same,Log10LC50,SK-OV-3,−4.21 log10M
same,Log10TGI50,SK-OV-3,−4.53 log10M
same,Log10LC50,CCRF-CEM,>−4.00 log10M
same,Log10TGI50,CCRF-CEM,−4.66 log10M
same,Log10LC50,HOP-92,−4.22 log10M
same,Log10TGI50,HOP-92,−4.65 log10M
same,Log10GI50,HOP-92,−6.37
same,Log10GI50,TK-10,−6.60
same,Log10LC50,TK-10,−4.38 log10M
same,Log10TGI50,TK-10,−4.81 log10M
"CC1CCC2C(C)C(CC(O)(CO)CC3OC4OC5(C)CCC6C(C)CCC(C3C)C46OO5)OC3OC4(C)CCC1C32OO4 (centres unmarked) [Compound 5, bis-trioxane vicinal diol]",Log10GI50,SK-MEL-2,−4.94
same,Log10LC50,SK-MEL-2,−4.12 log10M
same,Log10TGI50,SK-MEL-2,−4.53 log10M
same,Log10GI50,SK-MEL-28,−4.79
same,Log10LC50,SK-MEL-28,>−4.00 log10M
same,Log10TGI50,SK-MEL-28,−4.31 log10M
same,Log10GI50,HS 578T,−4.72
same,Log10LC50,HS 578T,>−4.00 log10M
same,Log10TGI50,HS 578T,−4.08 log10M
same,Log10LC50,OVCAR-5,>−4.00 log10M
same,Log10TGI50,OVCAR-5,−4.33 log10M
same,Log10GI50,OVCAR-5,−4.78
same,Log10LC50,NCI-H460,>−4.00 log10M
same,Log10TGI50,NCI-H460,−4.40 log10M
same,Log10GI50,NCI-H460,−5.02
same,Log10GI50,SNB-19,−4.82
same,Log10LC50,SNB-19,>−4.00 log10M
same,Log10TGI50,SNB-19,−4.34 log10M
same,Log10LC50,NCI-H23; [1],>−4.00 log10M
same,Log10TGI50,"NCI-H23; NCI-H23 (Non-Small Cell Lung Cancer), TGI: PG=0",−4.26 log10M
same,Log10GI50,NCI-H23,−4.83
same,concentration for cytotoxicity (percentage growth −50),MOLT-4,greater than 10^−4 M
same,Log10GI50,MOLT-4,<−8.00
same,Log10LC50,MOLT-4,>−4.00 log10M
same,Log10TGI50,MOLT-4,>−4.00 log10M
same,Log10LC50,OVCAR-8,>−4.00 log10M
same,Log10TGI50,OVCAR-8,−4.47 log10M
same,Log10GI50,OVCAR-8,<−8.00
same,Log10GI50,UACC-257,<−8.00
same,Log10LC50,UACC-257,−4.36 log10M
same,Log10TGI50,UACC-257,−4.90 log10M
same,Log10LC50,RPMI-8226,>−4.00 log10M
same,Log10TGI50,RPMI-8226,>−4.00 log10M
same,Log10GI50,SNB-75,−4.53
same,Log10LC50,SNB-75,>−4.00 log10M
same,Log10TGI50,SNB-75,−4.04 log10M
same,Log10GI50,SF-539,−4.86
same,Log10LC50,SF-539,>−4.00 log10M
same,Log10TGI50,SF-539,−4.41 log10M
same,Log10LC50,K-562,>−4.00 log10M
same,Log10TGI50,K-562,>−4.00 log10M
same,Log10GI50,K-562,<−8.00
same,Log10GI50,SK-OV-3,−4.62
same,Log10LC50,SK-OV-3,>−4.00 log10M
same,Log10TGI50,SK-OV-3,−4.15 log10M
same,Log10LC50,CCRF-CEM,>−4.00 log10M
same,Log10TGI50,CCRF-CEM,>−4.00 log10M
same,Log10GI50,"CCRF-CEM; Leukemia, CCRF-CEM",−4.71
same,Log10LC50,HOP-92,−4.05 log10M
same,Log10TGI50,HOP-92,−4.49 log10M
same,Log10GI50,HOP-92,−4.93
same,Log10GI50,TK-10,−4.91
same,Log10LC50,TK-10,−4.06 log10M
same,Log10TGI50,TK-10,−4.49 log10M
